Source: patent publication US12552797B2, “Process for making (3-[cyclopropylethoxy(difluoro)methyl]-6-6[5-fluoro-6-(2,2,2-trifluoroethoxy-3-pyridyl]- [1,2,4]triazolo[4,3-a]pyrazine” (Praxis Precision Medicines, Inc., priority 2019, dated 2026)

Experiments:
[1] = Stability of suspension formulations in methylcellulose/Poloxamer 188 vehicles (appearance, concentration, purity, PSD); assay type: physicochemical; parameters: key: *: homogeneous suspension initially, sedimentation occurred over time and returned to homogeneous after gentle agitation for ~1 min; #: viscous homogeneous suspension initially, sedimentation occurred over time and returned to homogeneous after gentle agitation for ~2 mins; conditions: 96 h at RT
Protocol: As shown in Tables 9-11, various suspension formulations were tested for stability under different conditions.
To prepare a suspension weigh required amount of milled Compound 1 into a glass container and add corresponding volume of the vehicle. Thoroughly disperse the compound into a homogenous suspension using an overhead mixer at the final concentration target. Concentrations were prepared at 0.1 mg/mL and at 10 mg/mL. The suspension products were physically evaluated on visual appearance, concentration, purity and PSD.
The vehicles are prepared by dissolving 0.5% by weight of either 400 cP methylcellulose or 4000 cP methylcellulose and 0.2% Poloxamer 188. For the preserved suspensions, additionally 1.0% by volume of paraben preservative solution was dissolved into vehicle using an overhead mixer. The paraben preservative solution was prepared by dissolving 0.10 g methyl paraben, 0.025 g propylparaben in 9.875 g propylene glycol dissolved by mixing with a stir bar at room temperature for 1 hour.

[2] = Stability of suspension formulations in 0.5% MC 400 cP/0.2% Tween 80 (HPLC, PSD); assay type: physicochemical
Protocol: For stability and purity testing of Compound 1 a high-performance liquid chromatography (HPLC) method was developed. The HPLC method used for chemical stability and purity testing was as follows:
To prepare suspension formulations of Compound 1, about 0.5 mg, 5 mg and 10 mg of Compound 1 were weighted into separate vials and 1 mL 0.5% MC 400 cP/0.2% Tween 80 was added to each vial. The materials were mixed together by Vortex and stirred at room temperature overnight (24 hrs). The stability of the suspension formulations was measured by quantifying the purity of Compound 1 using high pressure liquid chromatography (HPLC). […]
To prepare a suspension formulation comprising jet-milled Compound 1, 15 mg of jet-milled Compound 1 was weighed into a glass vial and then 10 mL of vehicle (0.5% MC 400 cP/0.2% Tween 80) was added to disperse it to reach Compound 1 concentration of 1.5 mg/mL. The suspension was thoroughly dispersed by homogenization for ˜30 seconds. The stability of the suspension was evaluated by HPLC and particle size distribution (PSD), and the results are summarized in Table 7. Based on HPLC and PSD, the suspension formulation comprising jet-milled Compound 1 was stable at ambient condition for 28 days.

[3] = jet milled, 0.5% MC 400 cP/0.2% Tween 80, target 1.5 mg/mL, 1 day
[4] = jet milled, 0.5% MC 400 cP/0.2% Tween 80, target 1.5 mg/mL, 6 days
[5] = jet-milled, 0.5% MC 400 cP/0.2% Tween 80, target 1.5 mg/mL, RT, Initial
[6] = jet-milled, 0.5% MC 400 cP/0.2% Tween 80, target 1.5 mg/mL, RT, day 1
[7] = jet-milled, 0.5% MC 400 cP/0.2% Tween 80, target 1.5 mg/mL, RT, day 2
[8] = jet-milled, 0.5% MC 400 cP/0.2% Tween 80, target 1.5 mg/mL, RT, day 3
[9] = jet-milled, 0.5% MC 400 cP/0.2% Tween 80, target 1.5 mg/mL, RT, day 6
[10] = jet-milled, 0.5% MC 400 cP/0.2% Tween 80, target 1.5 mg/mL, RT, day 7
[11] = jet-milled, 0.5% MC 400 cP/0.2% Tween 80, target 1.5 mg/mL, RT, day 14
[12] = jet-milled, 0.5% MC 400 cP/0.2% Tween 80, target 1.5 mg/mL, RT, day 21
[13] = jet-milled, 0.5% MC 400 cP/0.2% Tween 80, target 1.5 mg/mL, RT, day 28
[14] = un-milled, 0.5% MC 400 cP/0.2% Tween 80, target 0.5 mg/mL, 1 hr
[15] = un-milled, 0.5% MC 400 cP/0.2% Tween 80, target 0.5 mg/mL, 4 hrs
[16] = un-milled, 0.5% MC 400 cP/0.2% Tween 80, target 0.5 mg/mL, 7 days
[17] = un-milled, 0.5% MC 400 cP/0.2% Tween 80, target 5 mg/mL, 4 hrs
[18] = un-milled, 0.5% MC 400 cP/0.2% Tween 80, target 5 mg/mL, 7 days
[19] = un-milled, 0.5% MC 400 cP/0.2% Tween 80, target 10 mg/mL, 1 hr
[20] = un-milled, 0.5% MC 400 cP/0.2% Tween 80, target 10 mg/mL, 4 hrs
[21] = un-milled, 0.5% MC 400 cP/0.2% Tween 80, target 10 mg/mL, 7 days

**Q.** Which “Visual Appearance” value ([1]; 0.5% 400 cP MC, 0.2% Poloxamer 188, 0.1 mg/mL) does the source give for CCOC(F)(F)c1nnc2cnc(-c3cnc(OCC(F)(F)F)c(F)c3)cn12 [Compound 1, 3-(ethoxydifluoromethyl)-6-(5-fluoro-6-(2,2,2-trifluoroethoxy)pyridin-3-yl)-[1,2,4]triazolo[4,3-a]pyrazine] here?
**A.** *

**Q.** And the “Visual Appearance” value ([1]; 0.5% 400 cP MC, 0.2% Poloxamer 188, 10 mg/mL)?
**A.** *

**Q.** What about the “Visual Appearance” value ([1]; 0.5% 400 cP MC, 0.2% Poloxamer 188 and 1.0% of paraben preservative solution, 0.1 mg/mL) of the same compound?
**A.** *

**Q.** What about the “Visual Appearance” value ([1]; 0.5% 400 cP MC, 0.2% Poloxamer 188 and 1.0% of paraben preservative solution, 10 mg/mL) of the same compound?
**A.** *

**Q.** And the “Visual Appearance” value ([1]; 0.5% 4000 cP MC, 0.2% Poloxamer 188, 0.1 mg/mL)?
**A.** #

**Q.** What about the “Visual Appearance” value ([1]; 0.5% 4000 cP MC, 0.2% Poloxamer 188, 10 mg/mL) of the same compound?
**A.** #

**Q.** What about the “Visual Appearance” value ([1]; 0.5% 4000 cP MC, 0.2% Poloxamer 188 and 1.0% of paraben preservative solution, 0.1 mg/mL) of the same compound?
**A.** #

**Q.** What about the “Visual Appearance” value ([1]; 0.5% 4000 cP MC, 0.2% Poloxamer 188 and 1.0% of paraben preservative solution, 10 mg/mL) of the same compound?
**A.** #

**Q.** What about the appearance of suspensions ([2]; 0.5, 5 and 10 mg/mL in 0.5% MC 400 cP/0.2% Tween 80, room temperature) of the same compound?
**A.** homogenous suspensions

**Q.** And the Concentration [2, 3]?
**A.** 1440 µg/mL

**Q.** What about the Purity [2, 3] of the same compound?
**A.** 99.4%

**Q.** And the Concentration [2, 4]?
**A.** 1430 µg/mL

**Q.** What about the Purity [2, 4] of the same compound?
**A.** 99.5%

**Q.** What about the Appearance [2, 5] of the same compound?
**A.** Homogeneous

**Q.** And the Conc. [2, 5]?
**A.** 1610 µg/mL

**Q.** And the Purity [2, 5]?
**A.** 99.43%

**Q.** What about the Appearance [2, 6] of the same compound?
**A.** Homogeneous

**Q.** What about the Conc. [2, 6] of the same compound?
**A.** 1440 µg/mL

**Q.** And the Purity [2, 6]?
**A.** 99.44%

**Q.** And the Appearance [2, 7]?
**A.** Homogeneous

**Q.** And the Conc. [2, 7]?
**A.** 1380 µg/mL

**Q.** And the Purity [2, 7]?
**A.** 99.52%

**Q.** What about the Appearance [2, 8] of the same compound?
**A.** Homogeneous

**Q.** What about the Conc. [2, 8] of the same compound?
**A.** 1580 µg/mL

**Q.** What about the Purity [2, 8] of the same compound?
**A.** 99.49%

**Q.** And the Appearance [2, 9]?
**A.** Homogeneous

**Q.** And the Conc. [2, 9]?
**A.** 1430 µg/mL

**Q.** And the Purity [2, 9]?
**A.** 99.51%

**Q.** What about the Appearance [2, 10] of the same compound?
**A.** Homogeneous

**Q.** And the Conc. [2, 10]?
**A.** 1610 µg/mL

**Q.** What about the Purity [2, 10] of the same compound?
**A.** 99.55%

**Q.** What about the Appearance [2, 11] of the same compound?
**A.** Homogeneous

**Q.** What about the Conc. [2, 11] of the same compound?
**A.** 1610 µg/mL

**Q.** What about the Purity [2, 11] of the same compound?
**A.** 99.36%

**Q.** And the Appearance [2, 12]?
**A.** Homogeneous

**Q.** And the Conc. [2, 12]?
**A.** 1560 µg/mL

**Q.** What about the “PSD (D90)” value [2, 12] of the same compound?
**A.** 6.97 um

**Q.** What about the Purity [2, 12] of the same compound?
**A.** 99.58%

**Q.** And the Appearance [2, 13]?
**A.** Homogeneous

**Q.** And the Conc. [2, 13]?
**A.** 1640 µg/mL

**Q.** And the “PSD (D90)” value [2, 13]?
**A.** 6.80 um

**Q.** And the Purity [2, 13]?
**A.** 98.96%

**Q.** What about the “stable at ambient condition (HPLC and PSD)” value ([2]; suspension of jet-milled Compound 1, 1.5 mg/mL, 0.5% MC 400 cP/0.2% Tween 80) of the same compound?
**A.** 28 days

**Q.** What about the Concentration [2, 14] of the same compound?
**A.** 580 µg/mL

**Q.** And the Purity [2, 14]?
**A.** 97.46%

**Q.** What about the Concentration [2, 15] of the same compound?
**A.** 450 µg/mL

**Q.** What about the Purity [2, 15] of the same compound?
**A.** 96.65%

**Q.** What about the Concentration [2, 16] of the same compound?
**A.** 490 µg/mL

**Q.** What about the Purity [2, 16] of the same compound?
**A.** 97.85%

**Q.** And the Purity ([2]; un-milled, 0.5% MC 400 cP/0.2% Tween 80, target 5 mg/mL, 1 hr)?
**A.** 97.60%

**Q.** What about the Concentration [2, 17] of the same compound?
**A.** 4720 µg/mL

**Q.** And the Purity [2, 17]?
**A.** 97.84%

**Q.** What about the Concentration [2, 18] of the same compound?
**A.** 5060 µg/mL

**Q.** And the Purity [2, 18]?
**A.** 96.95%

**Q.** And the Concentration [2, 19]?
**A.** 9690 µg/mL

**Q.** What about the Purity [2, 19] of the same compound?
**A.** 96.86%

**Q.** What about the Concentration [2, 20] of the same compound?
**A.** 9790 µg/mL

**Q.** And the Purity [2, 20]?
**A.** 97.12%

**Q.** And the Concentration [2, 21]?
**A.** 9720 µg/mL

**Q.** What about the Purity [2, 21] of the same compound?
**A.** 96.71%
